Here are results for 13 compounds from patent US8748426B2, “Inhibitors of diacylglycerol acyl transferase” (Piramal Enterprises Limited, priority 2009, dated 2014).

A word on the inhibition: it is the relative decrease from the control value, in per cent.

Each structure is given as a SMILES string. A value given as a limit tells only on which side of the number the result lay.

The first assay has as its target T1, hDGAT1 (Homo sapiens, UniProt O75907).
T1 sequence (O75907 1-488): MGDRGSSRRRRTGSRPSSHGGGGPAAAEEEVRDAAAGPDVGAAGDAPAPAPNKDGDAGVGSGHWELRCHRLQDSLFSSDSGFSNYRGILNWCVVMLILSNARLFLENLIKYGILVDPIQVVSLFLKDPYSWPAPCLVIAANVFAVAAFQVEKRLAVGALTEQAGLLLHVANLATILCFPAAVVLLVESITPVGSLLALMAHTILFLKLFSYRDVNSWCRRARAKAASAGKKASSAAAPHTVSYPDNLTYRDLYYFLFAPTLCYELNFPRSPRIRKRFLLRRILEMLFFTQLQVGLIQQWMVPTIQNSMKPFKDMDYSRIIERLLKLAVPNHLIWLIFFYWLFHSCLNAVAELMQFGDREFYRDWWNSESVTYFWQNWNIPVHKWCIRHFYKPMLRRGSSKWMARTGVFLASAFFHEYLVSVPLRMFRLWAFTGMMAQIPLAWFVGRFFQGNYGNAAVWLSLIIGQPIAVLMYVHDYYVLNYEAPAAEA
Briefly: In-vitro DGAT1 assay (14C oleoyl CoA, hDGAT1 microsomes from Sf9 cells). The conditions noted are these: at 1 μM.
With `COC[C@@H](C(=O)O)N1Cc2ccc(-c3ccc(NC(=O)Nc4cccc(C(F)(F)F)c4)cc3)cc2C1=O` [Example 355], the “% Inhibition of hDGAT1” value is listed as “+ (10-50% Inhibition)”.

Take `O=C(Nc1ccc(-c2ccc3c(c2)C(=O)N(C24C[C@@H]5C[C@@H](CC(C(=O)O)(C5)C2)C4)C3)cc1)c1cccc(Cl)c1` [Example 567, (1r,3s,5R,7S)-3-(6-(4-(3-Chlorobenzamido)phenyl)-1-oxoisoindolin-2-yl)adamantane-1-carboxylic acid]: the “% Inhibition of hDGAT1” value was “+ (10-50% Inhibition)”.

Staying with this assay, now noted: read-out: % Inhibition of hDGAT1.
For the compound `CC(C)[C@@H](C(=O)O)N1Cc2ccc(-c3ccc(NC(=O)Nc4ccccc4Oc4ccccc4)cc3)cc2C1=O` [Example 48, (S)-3-Methyl-2-(1-oxo-6-(4-(3-(2-phenoxyphenyl)ureido)phenyl)isoindolin-2-yl)butanoic acid], the inhibition at 1 µM was > 50%.

`CC(C)[C@@H](C(=O)O)N1Cc2cc(-c3ccc(NC(=O)c4cccc(F)c4)cc3)ccc2C1=O` [Example 313, (S)-2-(5-(4-(3-Fluorobenzamido)phenyl)-1-oxoisoindolin-2-yl)-3-methylbutanoic acid]: the inhibition at 1 µM was in the range of 10 to 50%.

Take `Cc1ccc(C(=O)Nc2ccc(-c3ccc4c(c3)CN([C@H](C(=O)O)C(C)C)C4=O)cc2)cc1` [Example 319, (S)-3-Methyl-2-(5-(4-(4-methylbenzamido)phenyl)-1-oxoisoindolin-2-yl)butanoic acid]: the inhibition at 1 µM was 10 to 50%.

Take `O=C(Nc1ccc(-c2ccc3c(c2)C(=O)N(C2CCCC(C(=O)O)C2)C3)cc1)c1cccc(Cl)c1` (stereo not shown) [Example 547, 3-(6-(4-(3-Chlorobenzamido)phenyl)-1-oxoisoindolin-2-yl)cyclohexane carboxylic acid]: the inhibition at 1 µM is > 50%.

As to `CC(C)[C@@H](C(=O)O)N1Cc2cc(-c3ccc(NC(=O)c4ccc(C(C)(C)C)cc4)cc3)ccc2C1=O` [Example 323, (S)-2-(5-(4-(4-tert-Butylbenzamido)phenyl)-1-oxoisoindolin-2-yl)-3-methyl butanoic acid], the inhibition at 1 µM is 10 to 50%.

As for `CCCCOc1ccc(C(=O)Nc2ccc(-c3ccc4c(c3)C(=O)N([C@H](C(=O)O)C(C)C)C4)c(Cl)c2)cc1` [Example 484, (S)-2-(6-(4-(4-Butoxybenzamido)-2-chlorophenyl)-1-oxoisoindolin-2-yl)-3-methylbutanoic acid], the inhibition at 1 µM is > 50%.

Take `CCCCc1ccc(C(=O)Nc2ccc(-c3ccc4c(c3)C(=O)N([C@H](C(=O)O)C(C)C)C4)cc2)nc1` [Example 649, (S)-2-(6-(4-(5-Butylpicolinamido)phenyl)-1-oxoisoindolin-2-yl)-3-methylbutanoic acid]: the inhibition at 1 µM is > 50%.

Regarding `CC(C)[C@@H](C(=O)O)N1Cc2cc(-c3ccc(NC(=O)Nc4ccc(F)cc4F)cc3)ccc2C1=O` [Example 237, (S)-2-(5-(4-(3-(2,4-Difluorophenyl)ureido)phenyl)-1-oxoisoindolin-2-yl)-3-methylbutanoic acid], the inhibition at 1 µM was > 50%.

In the case of `CC(C)[C@@H](C(=O)O)N1Cc2ccc(-c3ccc(NC(=O)Nc4cccc(C(F)(F)F)c4)cc3)cc2C1=O` [Example 38, (S)-3-Methyl-2-(1-oxo-6-(4-(3-(3-(trifluoromethyl)phenyl)ureido)phenyl)isoindolin-2-yl)butanoic acid], the inhibition at 1 µM was > 50%.

With `COc1ccccc1NC(=S)Nc1ccc(-c2ccc3c(c2)C(=O)N([C@H](C(=O)O)C(C)C)C3)cc1` [Example 74, (S)-2-(6-(4-(3-(2-Methoxyphenyl)thioureido)phenyl)-1-oxoisoindolin-2-yl)-3-methylbutanoic acid], the inhibition at 1 µM was in the range of 10 to 50%.

As to `COc1ccc(OC)c(C(=O)Nc2ccc(-c3ccc4c(c3)C(=O)N([C@H](C(=O)O)C(C)C)C4)cc2)c1` [Example 180, (S)-2-(6-(4-(3,6-Dimethoxybenzamido)phenyl)-1-oxoisoindolin-2-yl)-3-methyl butanoic acid], the inhibition at 1 µM is > 50%.
